In data set [1] the target is full-length T1r2a–T1r3 receptor (Oryzias latipes, UniProt A0A173M094+A0A173M0G2). As to the kind of experiment: Ca2+ flux assay of full-length receptor in HEK293 (Flip-In 293) cells. Format: cell-based, medaka fish (Oryzias latipes). Conditions: for Response of the full-length receptor according to Ca2+-imaging: qualitative, tested up to 10 mM. The method, then:
(§1) The Ca^2+ flux assays were performed using a FLEX station 3 (Molecular Devices, LLC) for the cells loaded with 100 μl of Hank's balanced salt solution (Sigma-Aldrich), containing 5 μM of the calcium indicator dye Fluo8 NW (AAT Bioquest). The stimulation was performed by adding 25 μl of 5 × concentrated solutions of taste substances, using a pipette. The intensity of the response was represented as ΔRFU (delta relative fluorescence unit) defined as maximum fluorescence value for the taste substances minus that for the Hank's Balanced Salt Solution, and was plotted versus the ligand concentration. The concentration-response curves were fitted to the Hill equation, using SigmaPlot software (Systat Software).
For orientation: Calcium assays in cells follow changes in intracellular calcium, usually with a dye or a luminescent sensor.

Data set [2] addresses T1r2a–T1r3LBD heterodimer (Oryzias latipes, UniProt A0A173M094+A0A173M0G2). As to the kind of experiment: FRET signal change of T1r2aLBD-Cerulean and T1r3LBD-Venus heterodimer on amino acid binding. To be noted: for FRET signal elevation of fluorescence-labelled LBDs: qualitative.
Protocol: The conformational change of T1r2a–T1r3LBD on ligand binding was analysed by Förster resonance energy transfer (FRET) measurement. The heterodimer of the T1r2aLBD (M1-S474)—Celurean fusion protein (T1r2aL-Ce) and the T1r3LBD (M1-S491)—Venus fusion protein (T1r3L-Ve) was stably expressed by S2 cells (Invitrogen) and purified by ANTI-FLAG M2 affinity gel (SIGMA) by use of the FLAG-tag at their C termini, as previously described[22]. […] The titration curves were fitted to the Hill equation by using KaleidaGraph (Synergy Software).
Therefore, at least two independent measurements were performed in this study, except for the inset in Fig. 2a with a single analysis.
The next data set deals with T1, T1r2a–T1r3:S300E mutant (Oryzias latipes, UniProt A0A173M0G2).
T1 sequence (A0A173M0G2 12-802): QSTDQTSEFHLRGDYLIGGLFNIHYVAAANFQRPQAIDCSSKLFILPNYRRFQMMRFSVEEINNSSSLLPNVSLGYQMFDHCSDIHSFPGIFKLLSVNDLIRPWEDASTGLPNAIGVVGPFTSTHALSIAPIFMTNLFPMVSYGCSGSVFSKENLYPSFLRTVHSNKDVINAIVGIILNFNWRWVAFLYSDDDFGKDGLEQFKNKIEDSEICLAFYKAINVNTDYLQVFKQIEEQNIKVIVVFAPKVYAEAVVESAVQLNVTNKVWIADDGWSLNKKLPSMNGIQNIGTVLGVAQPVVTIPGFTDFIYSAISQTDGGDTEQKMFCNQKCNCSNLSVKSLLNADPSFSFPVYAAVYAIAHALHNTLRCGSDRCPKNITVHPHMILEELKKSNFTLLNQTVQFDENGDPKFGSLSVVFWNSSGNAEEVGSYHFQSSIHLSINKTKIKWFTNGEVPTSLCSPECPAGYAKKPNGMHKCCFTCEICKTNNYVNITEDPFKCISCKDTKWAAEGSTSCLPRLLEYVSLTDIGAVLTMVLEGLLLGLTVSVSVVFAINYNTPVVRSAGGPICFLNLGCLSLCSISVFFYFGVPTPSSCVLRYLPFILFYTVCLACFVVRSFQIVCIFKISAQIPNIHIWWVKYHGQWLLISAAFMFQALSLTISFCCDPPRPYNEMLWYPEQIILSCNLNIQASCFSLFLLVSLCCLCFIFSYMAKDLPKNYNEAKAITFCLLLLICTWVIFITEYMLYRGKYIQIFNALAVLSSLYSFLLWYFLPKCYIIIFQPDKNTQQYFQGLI
T1 sequence (A0A173M094 12-836 partner): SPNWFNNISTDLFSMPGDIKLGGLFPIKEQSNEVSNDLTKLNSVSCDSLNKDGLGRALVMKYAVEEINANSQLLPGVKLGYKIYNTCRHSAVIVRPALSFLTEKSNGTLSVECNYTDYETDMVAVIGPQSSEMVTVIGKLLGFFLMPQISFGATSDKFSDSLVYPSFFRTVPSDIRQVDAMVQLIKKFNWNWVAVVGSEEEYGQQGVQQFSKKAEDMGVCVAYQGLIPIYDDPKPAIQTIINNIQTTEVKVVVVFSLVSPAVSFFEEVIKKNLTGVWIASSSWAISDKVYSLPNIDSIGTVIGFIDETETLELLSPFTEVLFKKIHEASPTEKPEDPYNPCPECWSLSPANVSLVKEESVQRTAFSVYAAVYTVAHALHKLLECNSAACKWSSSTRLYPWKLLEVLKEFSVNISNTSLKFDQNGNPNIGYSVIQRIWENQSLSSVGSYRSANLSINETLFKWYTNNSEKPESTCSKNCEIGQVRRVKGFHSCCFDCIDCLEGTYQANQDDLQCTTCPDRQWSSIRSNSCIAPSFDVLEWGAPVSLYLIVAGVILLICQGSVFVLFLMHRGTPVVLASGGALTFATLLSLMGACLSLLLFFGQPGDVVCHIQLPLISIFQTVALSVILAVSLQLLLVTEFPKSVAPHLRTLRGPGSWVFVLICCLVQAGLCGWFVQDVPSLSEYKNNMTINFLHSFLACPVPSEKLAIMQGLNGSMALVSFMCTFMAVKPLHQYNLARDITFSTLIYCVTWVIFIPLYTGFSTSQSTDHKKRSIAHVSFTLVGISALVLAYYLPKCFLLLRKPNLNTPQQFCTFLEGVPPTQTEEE
As to the kind of experiment: cell-based. Also noted: species or system medaka fish (Oryzias latipes). The method, then: as §1
Mutations were introduced using QuikChange (Agilent Technologies) or PrimeStarMax (TAKARA BIO, only for T1r2a:S165I) with primers summarized in Supplementary Table 3.

For data set [3] the following is noted: cited from earlier work; for Hydropathy index: ref Handbook of Chemistry and Physics, CRC Press; for pI: ref Kyte & Doolittle, J. Mol. Biol., 157, 105-132, 1982; for Volume: ref Tsai et al. J. Mol. Biol., 290, 253-266,1999.
A further data set relates to human T1r1–T1r3. The arrangement: method as in PMID 24214976. To be noted: cited from earlier work.
Data set [4] deals with T2, T1r2a-T1r3LBD heterodimer, medaka fish (Oryzias latipes (medaka fish), UniProt A0A173M0G2;A0A173M094, glycosyl chains trimmed to single N-acetylglucosamine residues by Endo H | glycosyl chains trimmed to single N-acetylglucosamine residues by Endo H).
T2 construct: signal peptide in the construct; The two chains are joined by an intermolecular disulfide bridge, Cys344 (T1r2a) to Cys132 (T1r3); also called T1r2a-3LBD; T1r2aLBD-T1r3LBD heterodimer; source: S2 cells, stably co-expressed (5 uM kifunensine), from culture medium, purified (ANTI-FLAG M2, factor Xa, Endo H, SEC); not shown: FLAG, C-terminal, cleaved; copies: 1 + 1
As to the kind of experiment: crystal structure; T1r2a-3LBD heterodimer co-crystallised with Fab16A, with bound L-Gln, L-Ala, L-Arg, L-Glu or Gly; sitting-drop vapor diffusion with microseeding, PEG 1500, PEG400, 0.1 M MES pH 6.0, 293 K. To be noted: both partners purified.

[5] abbreviates: fitted parameter ± s.e. of Hill equation, Fig. 2b, intracellular Ca2+ elevation, HEK293, read-out: EC50 Receptor responses, T1r2a wt T1r3 wt.
Setting [6] is: fitted parameter ± s.e. of Hill equation, intracellular Ca2+ elevation, HEK293, read-out: EC50 Receptor responses, T1r2a wt T1r3 S300E.

Where two headings read alike, the source gives them in different places.

As to `NCC(=O)O` [Glycine], the “Response of the full-length receptor according to Ca2+-imaging” value (shortened to “Response”) in data set [1] (Fig. 2b) is listed as “poor or no significant receptor responses”. The “FRET signal elevation of fluorescence-labelled LBDs” value in data set [2] (Fig. 2a) is listed as “induced FRET signal elevation”. For the same molecule, the EC50 – broadly, the concentration at which the effect is half-maximal – in data set [2] (read-out: EC50 FRET changes of LBD, T1r2aLBD wt T1r3LBD wt, fitted parameter ± s.e. of Hill equation, Fig. 2a, room temperature) came to 6180 ± 3320 µM.
For `NC(=O)CC[C@H](N)C(=O)O` [L-Glutamine], the “Response” value in data set [1] (Fig. 2b) is given as “induced responses”. In addition, the results for the EC50 (in data set [1] (setting [5]); in data set [2]; on T1r2a–T1r3:S300E mutant (setting [6])) were 70 ± 8 µM, 11.5 ± 3.4 µM and 200 ± 19 µM, respectively. In addition, the “FRET signal elevation of fluorescence-labelled LBDs” value in data set [2] (Fig. 2a) is reported as “induced FRET signal elevation”.
Molecule `N=C(N)NCCC[C@H](N)C(=O)O` [L-Arginine] came in with an EC50 in data set [1] of 470 ± 297 µM. The “Response” value in data set [1] (Fig. 2b) was “induced responses”. Also, the EC50 in data set [2] was determined as 190 ± 35 µM. Besides, in data set [2] (Fig. 2a), the “FRET signal elevation of fluorescence-labelled LBDs” value is recorded as “induced FRET signal elevation”. Also, the EC50 at T1r2a–T1r3:S300E mutant amounted to 1300 ± 100 µM. Moreover, in data set [3], the Hydropathy index is -4.5, the pI was 10.76 and the Volume is reported as 194.0 Å3.
As for `N[C@@H](CCC(=O)O)C(=O)O` [L-Glutamate], in data set [1] (Fig. 2b), the “Response” value is on record as “poor or no significant receptor responses”. Besides, in data set [2], it took 1070 ± 382 µM to reach a half-maximal effect (EC50). Moreover, the “FRET signal elevation of fluorescence-labelled LBDs” value in data set [2] (Fig. 2a) is “induced FRET signal elevation”. The “Maximum FRET change at saturating concentrations” value in data set [2] (compared with glutamine, Fig. 2a) is given as “larger changes”. Moreover, in the data set with human T1r1–T1r3, the EC50 is approximately 2700 µM. In data set [3], the Hydropathy index is -3.5, the pI is on record as 3.22 and the Volume is 142.2 Å3.
In the case of `C[C@H](N)C(=O)O` [L-Alanine], the “Response” value in data set [1] (Fig. 2b) is recorded as “induced responses”. Besides, in data set [1] (setting [5]), the EC50 stood at 2460 ± 2670 µM. This molecule registered an EC50 in data set [2] of 141 ± 37 µM. Moreover, in data set [2] (Fig. 2a), the “FRET signal elevation of fluorescence-labelled LBDs” value is on record as “induced FRET signal elevation”. Also, the EC50 at T1r2a–T1r3:S300E mutant (setting [6]) stood at 1800 ± 300 µM. For the same molecule, in data set [3], the Hydropathy index is 1.8, the pI was 6.00 and the Volume is recorded as 90.0 Å3.
As to `NC(=O)CCC(N)C(=O)O` (stereo in doubt) [D-glutamine], the “FRET signal elevation of fluorescence-labelled LBDs, L- versus D-glutamine comparison” value in data set [2] (Fig. 2a inset, 283 K, single analysis) was “but not D-glutamine, induced FRET signal elevation”.

B1: Fab16A, Fab fragment of the anti-T1r2a-3LBD monoclonal antibody clone 16A (Fab, V domains shown)
VH: EVQLQQSGPELVKPGASMKISCKASGYSFTGYSMNWVKQSHGKNLEWIGLINPYNGDTTYKQKFKGKATLTVDRSSSTAYMELLRLTSEDSAVYYCARSGRGAPTTTTAWFTYWGQGTLVTVSA
VL: DIVLTQSPASLAVSLGQRATISCRASESVDSYGNSFMHWYQQKPGQPPILLISRASNLESGIPARFSGSGSRTDFTLTINPVEADDFATYYCQQTNEDPRTFGGGTKLEIK
notes: Parent antibody is mouse IgG1:kappa; Fab made by papain digestion; also called anti-T1r2a-3LBD mAb clone 16A; source: mouse hybridoma (Mikuri Immunological Lab. Co.); IgG digested with Immobilized-Papain, purified (Protein A Sepharose, Mono S)
Turning to B1, the binding result in data set [4] is “binds”.

These data come from paper PMC5457512, “Structural basis for perception of diverse chemical substances by T1r taste receptors” (Nature Communications, 2017).
